Assay results published in patent US4604380A, “C-23-substituted mycaminosyltylonolide compounds, pharmaceutical compositions and methods of use” (Eli Lilly and Company, priority 1985, dated 1986).
In brackets after ≈: the same amount, converted by molar mass. Where two headings read alike, the source gives them in different places.

Legend:
[1] = tested on: Haemophilus influenzae 76; test: MIC, standard agar-dilution assay (Table III); assay type: cell-based; conditions: agar dilution; Haemophilus influenzae 76, ampicillin-resistant strain; read-out: MIC
Method: (§1) The MIC's s in Table III were determined by standard agar-dilution assays. The MIC's in Table IV were obtained using a conventional broth-dilution microtiter test.

[2] = tested on: Haemophilus influenzae C.L.; test: MIC, standard agar-dilution assay (Table III); assay type: cell-based
Method: as §1

[3] = tested on: Staphylococcus aureus S13E; test: MIC, standard agar-dilution assay (Table III); assay type: cell-based
Method: as §1

[4] = tested on: Staphylococcus aureus V41; test: MIC, standard agar-dilution assay (Table III); assay type: cell-based; conditions: Staphylococcus aureus V41, penicillin-resistant strain
Method: as §1

[5] = tested on: Staphylococcus aureus X1.1; test: MIC, standard agar-dilution assay (Table III); assay type: cell-based
Method: as §1

[6] = tested on: Staphylococcus aureus X400; test: MIC, standard agar-dilution assay (Table III); assay type: cell-based; conditions: Staphylococcus aureus, X400
Method: as §1

[7] = tested on: Staphylococcus epidermidis 222; test: MIC, standard agar-dilution assay (Table III); assay type: cell-based; conditions: agar dilution; Staphylococcus epidermidis 222; read-out: MIC
Method: as §1

[8] = tested on: Staphylococcus epidermidis EPI1; test: MIC, standard agar-dilution assay (Table III); assay type: cell-based
Method: as §1

[9] = tested on: Streptococcus Group D 2041; test: MIC, standard agar-dilution assay (Table III); assay type: cell-based; conditions: GROUPD2041
Method: as §1

[10] = tested on: Streptococcus Group D X66; test: MIC, standard agar-dilution assay (Table III); assay type: cell-based
Method: as §1

[11] = tested on: Streptococcus pyogenes C203; test: MIC, standard agar-dilution assay (Table III); assay type: cell-based
Method: as §1

[12] = tested on: Streptococcus pneumoniae Park I; test: microbe, parasite or virus in culture; assay type: cell-based
Method: as §1

Staphylococcus aureus = test: ED50 vs. Staphylococcus aureus experimental infection in mice (Table V); assay type: in vivo; conditions: two doses, dose protecting 50% of animals
Method: (§2) Certain formula 1a compounds have also shown in vivo antimicrobial activity against experimental bacterial infections. When two doses of test compound were administered to mice in experimental infections, the activity observed was measured as an ED50 value [effective dose in mg/kg to protect 50% of the test animals: see Warren Wick, et al., J. Bacteriol. 81, 233-235 (1961)].

Streptococcus pyogenes = test: ED50 vs Streptococcus pyogenes experimental infection in mice (Table VI); assay type: in vivo; conditions: two doses, several values = results from more than one test
Method: as §2

[13] = tested on: Streptococcous pneumoniae; test: ED50 vs. Streptococcous pneumoniae experimental infection in mice (Table VII); assay type: in vivo; conditions: Mus musculus, two doses
Method: as §2

[14] = Staphylococcus epidermidis, EPI1
[15] = sc, subcutaneous, read-out: ED50 Subcutaneous
[16] = agar dilution, Haemophilus influenzae C.L., ampicillin-sensitive strain, read-out: MIC

CCC1OC(=O)CC(O)C(C)C(OC2OC(C)C(O)C(N(C)C)C2O)C(CC=O)CC(C)C(=O)C=CC(C)=CC1CN1CCC2CCCCC2C1 (centres unmarked) [Compound 33, 23-deoxy-23-(octahydro-1H--isoquinolin-2-yl)-OMT]
MIC [1]: 0.25 µg/mL (≈ 0.348 µM)
MIC ([2]; Haemophilus influenzae): 0.5 µg/mL (≈ 0.695 µM)
MIC [3]: 0.5 µg/mL (≈ 0.695 µM)
MIC [4]: 0.5 µg/mL (≈ 0.695 µM)
MIC [5]: 0.5 µg/mL (≈ 0.695 µM)
MIC [6]: 0.25 µg/mL (≈ 0.348 µM)
MIC [7]: 0.125 µg/mL (≈ 0.174 µM)
MIC [8, 14]: 0.5 µg/mL (≈ 0.695 µM)
MIC [9]: 0.5 µg/mL (≈ 0.695 µM)
MIC [10]: 0.5 µg/mL (≈ 0.695 µM)
MIC ([11]; Streptococcus pyogenes, C203): 0.03 µg/mL (≈ 0.0417 µM)
MIC ([12]; Streptococcus pneumoniae, read-out: MIC): 0.06 µg/mL (≈ 0.0835 µM)
ED50 (Staphylococcus aureus; [15]): 7.56 mg/kg
ED50 (Streptococcus pyogenes; [15]): > 10 mg/kg
ED50 [13, 15]: 10 mg/kg

CCC1OC(=O)CC(O)C(C)C(OC2OC(C)C(O)C(N(C)C)C2O)C(CC=O)CC(C)C(=O)C=CC(C)=CC1CN1CCc2ccccc2C1 (centres unmarked) [Compound 29, 23-deoxy-23-(3,4-dihydro-1H--isoquinolin-2-yl)-OMT]
MIC [1]: 1 µg/mL (≈ 1.4 µM)
MIC [2, 16]: 1 µg/mL (≈ 1.4 µM)
MIC [3]: 0.25 µg/mL (≈ 0.351 µM)
MIC [4]: 0.25 µg/mL (≈ 0.351 µM)
MIC [5]: 0.25 µg/mL (≈ 0.351 µM)
MIC [6]: 0.25 µg/mL (≈ 0.351 µM)
MIC [7]: 0.125 µg/mL (≈ 0.175 µM)
MIC ([8]; agar dilution, Staphylococcus epidermidis EPI1, read-out: MIC): 0.125 µg/mL (≈ 0.175 µM)
MIC ([9]; agar dilution, Streptococcus Group D 2041, read-out: MIC): 0.25 µg/mL (≈ 0.351 µM)
MIC ([10]; agar dilution, Streptococcus Group D X66, read-out: MIC): 0.125 µg/mL (≈ 0.175 µM)
MIC ([11]; agar dilution, Streptococcus pyogenes C203, read-out: MIC): 0.06 µg/mL (≈ 0.0842 µM)
MIC ([12]; Streptococcus pneumoniae): 0.03 µg/mL (≈ 0.0421 µM)
ED50 (Staphylococcus aureus; [15]): > 10 mg/kg
ED50 (Streptococcus pyogenes; [15]): > 10 mg/kg
ED50 [13, 15]: > 10 mg/kg

CCC1OC(=O)CC(O)C(C)C(OC2OC(C)C(O)C(N(C)C)C2O)C(CC=O)CC(C)C(=O)C=CC(C)=CC1CN1CCC2CCCCC21 (centres unmarked) [Compound 35, 23-deoxy-23-(octahydro-1H--indol-1-yl)-OMT]
MIC [1]: 1 µg/mL (≈ 1.42 µM)
MIC [2, 16]: 0.5 µg/mL (≈ 0.709 µM)
MIC [3]: 0.25 µg/mL (≈ 0.355 µM)
MIC [4]: 0.25 µg/mL (≈ 0.355 µM)
MIC [5]: 0.25 µg/mL (≈ 0.355 µM)
MIC [6]: 0.25 µg/mL (≈ 0.355 µM)
MIC [7]: 0.125 µg/mL (≈ 0.177 µM)
MIC [8, 14]: 0.25 µg/mL (≈ 0.355 µM)
MIC [9]: 0.25 µg/mL (≈ 0.355 µM)
MIC [10]: 0.25 µg/mL (≈ 0.355 µM)
MIC ([11]; Streptococcus pyogenes, C203): 0.5 µg/mL (≈ 0.709 µM)
MIC ([12]; agar dilution, Streptococcus pneumoniae Park I, read-out: MIC): 1 µg/mL (≈ 1.42 µM)
ED50 (Staphylococcus aureus; po, read-out: ED50 Oral): 100 mg/kg
ED50 (Streptococcus pyogenes; po, read-out: ED50 Oral): 87.1 mg/kg
ED50 (Streptococcus pyogenes; [15]): 1.86 mg/kg
ED50 Subcutaneous (Streptococcus pyogenes; subcutaneous): 2.5 mg/kg × 2
ED50 ([13]; po, read-out: ED50 Oral): 71 mg/kg
